Here are results for seven compounds from publication PMC8508710, “Biochemical Characterization of 13-Lipoxygenases of Arabidopsis thaliana” (International Journal of Molecular Sciences, 2021).

Structures are written as SMILES.

In assay [1] the target is T1, LOX2 (Arabidopsis thaliana, UniProt P38418).
T1 sequence (P38418 71-896): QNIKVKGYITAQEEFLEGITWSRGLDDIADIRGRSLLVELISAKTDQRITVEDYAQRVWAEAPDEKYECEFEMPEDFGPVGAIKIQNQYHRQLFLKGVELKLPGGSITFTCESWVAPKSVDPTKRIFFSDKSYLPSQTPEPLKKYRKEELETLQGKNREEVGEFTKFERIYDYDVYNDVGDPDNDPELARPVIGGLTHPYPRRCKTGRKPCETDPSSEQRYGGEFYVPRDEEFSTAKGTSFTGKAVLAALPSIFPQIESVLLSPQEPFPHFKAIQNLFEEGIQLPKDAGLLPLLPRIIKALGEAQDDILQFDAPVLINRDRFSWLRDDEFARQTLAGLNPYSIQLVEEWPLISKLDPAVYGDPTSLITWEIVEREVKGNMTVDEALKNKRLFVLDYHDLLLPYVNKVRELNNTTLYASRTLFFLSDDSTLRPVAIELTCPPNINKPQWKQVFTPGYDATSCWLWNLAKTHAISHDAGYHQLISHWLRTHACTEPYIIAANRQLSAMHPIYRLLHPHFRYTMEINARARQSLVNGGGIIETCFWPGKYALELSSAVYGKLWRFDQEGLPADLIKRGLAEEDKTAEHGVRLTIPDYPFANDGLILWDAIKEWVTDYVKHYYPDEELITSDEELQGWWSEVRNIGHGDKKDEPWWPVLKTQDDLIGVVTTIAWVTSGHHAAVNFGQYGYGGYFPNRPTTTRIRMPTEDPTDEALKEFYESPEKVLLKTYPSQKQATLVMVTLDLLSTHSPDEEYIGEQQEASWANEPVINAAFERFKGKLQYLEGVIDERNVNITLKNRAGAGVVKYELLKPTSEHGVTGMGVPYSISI
As to the kind of experiment: LOX2 activity, oxygen electrode (polarography). It is filed as biochemical. Also on record: made in house; host or cells: E. coli Nico21(DE3), pET15b. Particulars: for activity at 280 µM: enzyme incubated with 280 µM chemical (1/10 vol of 2.8 mM), injected into 30 µM LeA, 50 mM Tris-HCl pH 7.2, vs solvent control, read-out: Polarography Relative Activity (%) LOX2; for Increase of LOX2 activity in comparison to control: 1 mM cation, LeA 30 µM, pH 8.0; for Relative Activity (%) LOX2: 1 mM metal salt, LeA 30 µM in 20 mM HEPES pH 8.0, oxygen consumption vs control without metal.

The target in assay [2] is T2, LOX6 (Arabidopsis thaliana, UniProt Q9CAG3).
T2 sequence (Q9CAG3 41-917): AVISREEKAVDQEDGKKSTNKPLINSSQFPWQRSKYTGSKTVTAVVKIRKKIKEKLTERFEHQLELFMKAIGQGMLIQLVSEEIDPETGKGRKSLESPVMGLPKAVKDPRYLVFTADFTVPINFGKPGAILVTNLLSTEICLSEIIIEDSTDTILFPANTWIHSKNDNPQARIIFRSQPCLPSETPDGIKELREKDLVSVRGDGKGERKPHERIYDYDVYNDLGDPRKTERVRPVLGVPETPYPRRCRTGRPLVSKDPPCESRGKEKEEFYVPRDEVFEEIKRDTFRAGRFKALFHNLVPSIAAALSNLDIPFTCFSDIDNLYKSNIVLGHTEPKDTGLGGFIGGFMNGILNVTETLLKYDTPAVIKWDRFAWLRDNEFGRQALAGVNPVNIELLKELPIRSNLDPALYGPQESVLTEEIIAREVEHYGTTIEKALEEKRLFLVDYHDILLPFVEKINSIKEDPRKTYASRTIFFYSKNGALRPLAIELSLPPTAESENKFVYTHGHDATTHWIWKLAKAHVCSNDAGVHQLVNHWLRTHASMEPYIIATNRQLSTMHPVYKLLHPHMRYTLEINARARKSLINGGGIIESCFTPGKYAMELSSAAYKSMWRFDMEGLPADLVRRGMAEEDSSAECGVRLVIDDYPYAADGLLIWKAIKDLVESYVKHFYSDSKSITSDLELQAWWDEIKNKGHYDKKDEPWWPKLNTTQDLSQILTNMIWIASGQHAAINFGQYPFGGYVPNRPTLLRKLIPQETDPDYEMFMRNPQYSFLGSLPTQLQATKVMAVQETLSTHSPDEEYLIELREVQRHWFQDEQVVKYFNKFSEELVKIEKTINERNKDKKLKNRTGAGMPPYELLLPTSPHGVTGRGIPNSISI
As to the kind of experiment: LOX6 activity, oxygen electrode (polarography). Also on record: made in house; host or cells: E. coli Nico21(DE3), pEXP5-NT/TOPO. The format is biochemical. Conditions: for activity at 280 µM: enzyme incubated with 280 µM chemical (1/10 vol of 2.8 mM), injected into 30 µM LeA, 50 mM Tris-HCl pH 7.2, vs solvent control, read-out: Polarography Relative Activity (%) LOX6; for Increase of LOX6-catalyzed oxygen consumption: 1 mM cation, LeA 30 µM, pH 8.0; for Relative Activity (%) LOX6: 1 mM metal salt, LeA 30 µM in 20 mM HEPES pH 8.0, oxygen consumption vs control without metal.

Assay [3] has as its target T1, LOX2. Nature of the assay: LOX2 activity, spectrophotometric (conjugated diene formation at 234 nm). Particulars: for Mode of inhibition: Lineweaver–Burk plot, 12-OPDA tested at 226 µM; for Photometry Relative activity (%) LOX2: enzyme 0.225 µg/µL incubated 10 min 30 °C with 280 µM chemical, 4.8 µM LeA, 50 mM Tris-HCl pH 7.2, vs solvent control; for Relative Activity (%) LOX2: E. coli lysate in 50 mM TRIS pH 8.0 diluted 1:10, 50 mM HEPES pH 8.0 + 1 mM metal salt, LeA, 234 nm; for LOX2 activity in presence of Cd2+: 9 µM LeA, 20 mM HEPES pH 8.0, control 0.8 ± 0.2.

The target of assay [4] is T2, LOX6. Nature of the assay: LOX6 activity, spectrophotometric (conjugated diene formation at 234 nm). Conditions: for Photometry Relative activity (%) LOX6: enzyme 0.225 µg/µL incubated 10 min 30 °C with 280 µM chemical, 4.8 µM LeA, 50 mM Tris-HCl pH 7.2, vs solvent control; for Relative Activity (%) LOX6: E. coli lysate in 50 mM TRIS pH 8.0 diluted 1:10, 50 mM HEPES pH 8.0 + 1 mM metal salt, LeA, 234 nm.

`CCC=CCC1C(=O)C=CC1CCCCCCCC(=O)O` (stereo not drawn) [12-OPDA, cis-(+)-12-oxophytodienoic acid]: the activity at 280 µM at LOX2 [1] was 64 ± 4%. In addition, at LOX6 [2], the activity at 280 µM came out at 50 ± 10%. Besides, on LOX2 [3], the IC50 (as a rule, the concentration needed to halve the response being measured) was 280 to 338 µM; the Mode of inhibition entry is “non-competitive”; the “Photometry Relative activity (%) LOX2” value was 49 ± 10%. Moreover, at LOX6 [4], the IC50 fell in the range of 280 to 338 µM and the “Photometry Relative activity (%) LOX6” value is on record as 59 ± 10%. In addition, the Mode of inhibition result on LOX6 [4] (226 µM) was “non-competitive”.

For the compound `[Ca+2].[Cl-].[Cl-]` [CaCl2], at LOX2 [1], the “Increase of LOX2 activity in comparison to control” value was 590% and the “Relative Activity (%) LOX2” value was 690 ± 60%. Besides, on LOX6 [2], the “Increase of LOX6-catalyzed oxygen consumption” value came to 21% and the “Relative Activity (%) LOX6” value is 121 ± 15%. For the same compound, the “Relative Activity (%) LOX2” value at LOX2 [3] is recorded as 550±40%. Also, the “Relative Activity (%) LOX6” value at LOX6 [4] is reported as 107±11%.

Regarding `O=S(=O)([O-])[O-].[Cd+2]` [CdSO4], the “Relative Activity (%) LOX2” value at LOX2 [1] was found to be 220 ± 18%; at LOX2 [3], 950±240%. The “Relative Activity (%) LOX6” value is “no activity” at LOX6 [2] and 40±10% on LOX6 [4]. The “LOX2 activity in presence of Cd2+” value on LOX2 [3] (40 µM Cd2+, listed as Cd2+) was 2.3 ± 0.3 nmol/s/mg; at LOX2 [3] (40 µM Cd2+, listed as Cd^2+), 2.3 ± 0.3 nmol/s/mg; at LOX2 [3] (150 µM Cd2+, listed as Cd2+), 5.2 ± 0.9 nmol/s/mg; on LOX2 [3] (150 µM Cd2+, listed as Cd^2+), 5.2 ± 0.9 nmol/s/mg; on LOX2 [3] (1180 µM Cd2+, listed as Cd2+), 5.7 ± 0.7 nmol/s/mg; at LOX2 [3] (1180 µM Cd2+, listed as Cd^2+) it was 5.7 ± 0.7 nmol/s/mg.

As for `CC/C=C\CC1C(=O)CCC1CC(=O)OC` (centres unmarked) [MJ, methyl jasmonate], the activity at 280 µM at LOX2 [1] stood at 87 ± 10%. The activity at 280 µM on LOX6 [2] amounted to 94 ± 6%. Further, at LOX2 [3], the Mode of inhibition entry is reported as “competitive” and the “Photometry Relative activity (%) LOX2” value was found to be 62 ± 10%. For the same compound, the “Photometry Relative activity (%) LOX6” value at LOX6 [4] amounted to 86 ± 6%.

In the case of `[Cl-].[Cl-].[Mg+2]` [MgCl2], on LOX2 [1], the “Increase of LOX2 activity in comparison to control” value is on record as 70% and the “Relative Activity (%) LOX2” value amounted to 170 ± 18%. In addition, on LOX6 [2], the “Increase of LOX6-catalyzed oxygen consumption” value is 42% and the “Relative Activity (%) LOX6” value is recorded as 142 ± 15%. For the same compound, the “Relative Activity (%) LOX2” value at LOX2 [3] is on record as 188±28%. The “Relative Activity (%) LOX6” value on LOX6 [4] was 123±10%.

As to `O=C(O)c1ccccc1O` [SA, salicylic acid], the values for the activity at 280 µM on LOX2 [1] and on LOX6 [2] were 96 ± 7% and 103 ± 5%, respectively.

As to `O=C(O)/C=C/CCCCCCCCC(=O)O` [TA, traumatic acid], the activity at 280 µM at LOX2 [1] worked out at 95 ± 8%; at LOX6 [2] it was 101 ± 12%. Besides, at LOX2 [3], the “Photometry Relative activity (%) LOX2” value is listed as 105 ± 5%. At LOX6 [4], the “Photometry Relative activity (%) LOX6” value is reported as 100 ± 9%.
